The text below walks through data of PubChem BioAssay (NCI).

Among the test systems are OVCAR-3 ovarian; T-47D breast; MDA-MB-435; HCT-15 colon; HL-60(TB) leukemia; A498 renal; HS 578T breast; SF-268 CNS.
Common to all, as to assay: growth of human tumour cells (NCI), 48 h

SMILES strings stand for the structures.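 In this assay, cells in 96-well plates receive the compound at five concentrations for 48 hours. Endpoints are linearly interpolated between the surrounding concentrations. The concentration for 50% growth inhibition is given as GI50. TGI: concentration producing complete growth inhibition.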

As to `CCCCOc1ccc(/C=N/Nc2cc(C)nc3ccc(Cl)cc23)cc1`, the GI50 in the experiment on OVCAR-3 ovarian was 2.03 µM; in the experiment on T-47D breast, 1.73 µM; with MDA-MB-435, 1.73 µM; in the experiment on HCT-15 colon, 1.35 µM; in the experiment on HL-60(TB) leukemia it was 1.76 µM; with A498 renal it was 1.52 µM. Moreover, the TGI with OVCAR-3 ovarian is 3.78 µM; with T-47D breast, 3.77 µM; in the experiment with MDA-MB-435, 3.17 µM; in the experiment with HCT-15 colon, 2.74 µM; with HL-60(TB) leukemia, 3.65 µM; in the experiment with A498 renal, 2.93 µM.
Take `O=S(=O)(O)ONC1=NCCN1`: the GI50 is above 100 µM in the experiment on OVCAR-3 ovarian; 38.8 µM in the experiment on T-47D breast; 26.9 µM in the experiment on HS 578T breast; above 100 µM in the experiment with MDA-MB-435; above 100 µM in the experiment with HCT-15 colon; above 100 µM in the experiment with HL-60(TB) leukemia. The GI50 in the experiment on SF-268 CNS is above 100 µM. Further, the TGI in the experiment on OVCAR-3 ovarian, in the experiment on T-47D breast, in the experiment with HS 578T breast, in the experiment on MDA-MB-435, in the experiment on HCT-15 colon and in the experiment with HL-60(TB) leukemia was above 100 µM in each case. In the experiment with SF-268 CNS, the TGI was above 100 µM.
For the molecule `C#Cc1cc2c(N)c(C(=O)c3cc(OC)c(OC)c(OC)c3)[nH]c2cc1OC`, the GI50 with T-47D breast was 0.449 µM; in the experiment on HS 578T breast it was 1.34 µM; in the experiment with HCT-15 colon, 0.46 µM; in the experiment with A498 renal, 0.487 µM; in the experiment on SF-268 CNS, 14.1 µM. Besides, the TGI in the experiment with T-47D breast was 54.7 µM; in the experiment with HS 578T breast it was above 100 µM; with HCT-15 colon, above 100 µM; with A498 renal, 16.9 µM; with SF-268 CNS it was above 100 µM.
`CCc1nc(-n2c(-c3ccccc3)nc3ccccc3c2=O)nc(N)c1-c1ccc(Cl)cc1`: the GI50 was 0.554 µM with OVCAR-3 ovarian; 27 µM in the experiment on T-47D breast; 34.8 µM in the experiment with HS 578T breast; 3.48 µM in the experiment on MDA-MB-435; 6.43 µM with HCT-15 colon; 25 µM in the experiment on A498 renal. Besides, the GI50 with SF-268 CNS was 73.2 µM. The TGI was 30.7 µM in the experiment on OVCAR-3 ovarian; 81 µM in the experiment on T-47D breast; above 100 µM with HS 578T breast; above 100 µM in the experiment with MDA-MB-435; above 100 µM with HCT-15 colon; 92.7 µM in the experiment on A498 renal. In the experiment on SF-268 CNS, this molecule showed a TGI above 100 µM.
In the case of `O=C1c2ccn(CCCCN3CCC(O)CC3)c2C(=O)c2c1c(O)c1ccccc1c2O`, the GI50 was 2.24 µM in the experiment on OVCAR-3 ovarian; above 46 µM in the experiment on T-47D breast; 29.2 µM with HS 578T breast; 2.68 µM with HCT-15 colon; 23.7 µM in the experiment on A498 renal; 17.8 µM in the experiment with SF-268 CNS. In addition, the TGI in the experiment on OVCAR-3 ovarian is 4.95 µM; in the experiment with T-47D breast, above 67.6 µM; in the experiment with HS 578T breast it was above 83.8 µM; with HCT-15 colon, 8.83 µM; with A498 renal, 55.4 µM; in the experiment on SF-268 CNS it was above 74.3 µM.
On to `O=C(c1ccccc1)C1C(C(=O)c2ccccc2)C(c2ccccc2)N(c2ccccc2)C1c1ccccc1` (centres undefined), for which the TGI in the experiment with OVCAR-3 ovarian, in the experiment on T-47D breast, in the experiment with HS 578T breast, with MDA-MB-435, in the experiment with HCT-15 colon and with HL-60(TB) leukemia was above 100 µM throughout. The molecule also displayed a TGI in the experiment with SF-268 CNS above 100 µM.
For the molecule `CCOC(=O)/C(C#N)=C/Nc1ccc(-c2nc3ccccc3[nH]2)cc1`, the GI50 in the experiment with OVCAR-3 ovarian is 20.4 µM; in the experiment with T-47D breast it was 33.9 µM; in the experiment with HS 578T breast, 24.3 µM; with MDA-MB-435, 33.8 µM; in the experiment on HCT-15 colon, 34.1 µM; with HL-60(TB) leukemia, 40.5 µM. Also, the GI50 with SF-268 CNS is 19.2 µM. Also, the TGI in the experiment with OVCAR-3 ovarian is 51.6 µM; with T-47D breast, above 100 µM; in the experiment on HS 578T breast, 79.5 µM; with MDA-MB-435 it was above 100 µM; in the experiment with HCT-15 colon, above 100 µM; in the experiment with HL-60(TB) leukemia, 97.3 µM. The molecule also displayed a TGI in the experiment with SF-268 CNS of 47.4 µM.
Regarding `N#Cc1cccc(OCc2ccccc2COc2cccc(C#N)c2)c1`, the GI50 in the experiment with T-47D breast was 55.6 µM; in the experiment on HS 578T breast, 30.9 µM; in the experiment with MDA-MB-435 it was 25.4 µM; in the experiment with HCT-15 colon, above 100 µM; with SF-268 CNS, 25 µM. Besides, the TGI with T-47D breast is above 100 µM; with HS 578T breast it was 70.5 µM; with MDA-MB-435 it was above 100 µM; in the experiment on HCT-15 colon it was above 100 µM; in the experiment with SF-268 CNS, 61.2 µM.
In the case of `O=C(CC(=O)c1ccccc1)c1ccccc1`, the GI50 is 16.2 µM in the experiment on OVCAR-3 ovarian; 14.9 µM in the experiment with T-47D breast; 25.4 µM in the experiment on HS 578T breast; 29.3 µM in the experiment with MDA-MB-435; 2.06 µM in the experiment with HCT-15 colon; 12.3 µM in the experiment with HL-60(TB) leukemia. Moreover, the GI50 with SF-268 CNS was 10.9 µM. Moreover, the TGI with OVCAR-3 ovarian was 53.5 µM; in the experiment on T-47D breast, 46.1 µM; in the experiment on HS 578T breast, above 100 µM; in the experiment on MDA-MB-435, above 100 µM; in the experiment with HCT-15 colon, 6.82 µM; in the experiment on HL-60(TB) leukemia, above 100 µM. In addition, the TGI in the experiment on SF-268 CNS was found to be 57.7 µM.
As for `COc1cc(-c2nn(-c3ccc(NC(=O)c4cc(Cl)cc(Cl)c4)cc3)cc2-c2ccncc2)ccc1Cl`, the GI50 was above 100 µM in the experiment with OVCAR-3 ovarian; above 100 µM in the experiment with T-47D breast; 3.29 µM in the experiment with HS 578T breast; above 100 µM with MDA-MB-435; 5.82 µM with HL-60(TB) leukemia; above 100 µM with A498 renal. Also, the GI50 in the experiment with SF-268 CNS is above 100 µM. Further, the TGI in the experiment on OVCAR-3 ovarian, in the experiment with T-47D breast, with HS 578T breast, in the experiment on MDA-MB-435, with HL-60(TB) leukemia and in the experiment with A498 renal was above 100 µM throughout. The molecule also gave a TGI in the experiment with SF-268 CNS above 100 µM.
As to `CN(C)CCNc1nc2ccccc2c2c(=O)c3ccccc3sc12`, the GI50 in the experiment on OVCAR-3 ovarian is 2.06 µM; in the experiment on T-47D breast, 4.91 µM; with HS 578T breast it was 2.89 µM; in the experiment with MDA-MB-435, 1.83 µM; in the experiment with HCT-15 colon, 1.97 µM; in the experiment with HL-60(TB) leukemia, 1.82 µM. Besides, the GI50 with SF-268 CNS is 2.1 µM. The TGI came out at 5.46 µM in the experiment on OVCAR-3 ovarian; 22.9 µM in the experiment with T-47D breast; 11.7 µM in the experiment on HS 578T breast; 3.42 µM in the experiment on MDA-MB-435; 4.85 µM in the experiment on HCT-15 colon; 4.21 µM in the experiment with HL-60(TB) leukemia. In the experiment on SF-268 CNS, this molecule registered a TGI of 8.82 µM.
`COc1ccc(/C=N/N=C(\[O-])c2ccncc2)cc1F.COc1ccc(/C=N\N=C(/[O-])c2ccncc2)cc1F.[Cu+2]`: the GI50 is 27.3 µM in the experiment on OVCAR-3 ovarian; 18 µM in the experiment with HS 578T breast; 62.1 µM in the experiment with MDA-MB-435; 52.6 µM in the experiment on HCT-15 colon; 25.9 µM in the experiment on SF-268 CNS. The TGI in the experiment with OVCAR-3 ovarian was 82.9 µM; with HS 578T breast, 60 µM; with MDA-MB-435, above 100 µM; with HCT-15 colon it was above 100 µM; with SF-268 CNS, 86.3 µM.
For the molecule `O=C(Nc1cccc(C(F)(F)F)c1)c1cc(Br)cc(Br)c1O`, the TGI in the experiment on OVCAR-3 ovarian is 6.14 µM; in the experiment with T-47D breast it was 9.69 µM; in the experiment on HS 578T breast, above 10 µM; in the experiment with MDA-MB-435, above 10 µM; in the experiment with HCT-15 colon it was above 10 µM; in the experiment on HL-60(TB) leukemia, 5 µM. Also, the TGI in the experiment with SF-268 CNS is above 10 µM.
As to `Cc1nnc(-c2ccc(-c3nc4ccccc4o3)cc2)o1`, the GI50 was above 100 µM in the experiment with OVCAR-3 ovarian; above 100 µM in the experiment on T-47D breast; 95.1 µM in the experiment on HS 578T breast; above 100 µM in the experiment with MDA-MB-435; 70.8 µM with HCT-15 colon; 56.8 µM in the experiment with HL-60(TB) leukemia. Also, the GI50 with SF-268 CNS was 28.6 µM. For the same molecule, the TGI in the experiment with OVCAR-3 ovarian, in the experiment with T-47D breast, in the experiment on HS 578T breast, in the experiment with MDA-MB-435, in the experiment on HCT-15 colon and in the experiment with HL-60(TB) leukemia was above 100 µM each time. Further, in the experiment with SF-268 CNS, the TGI was 92.2 µM.
Consider `Cc1cc(S(=O)(=O)Nc2nc3cc(Cl)ccc3o2)c(SCc2ccccc2)cc1Cl`, for which the GI50 with OVCAR-3 ovarian was 22 µM; in the experiment with T-47D breast it was 17.8 µM; with HS 578T breast, 21 µM; in the experiment on MDA-MB-435 it was 21.5 µM; in the experiment with HCT-15 colon it was 8.28 µM; in the experiment on A498 renal it was 18.8 µM. Besides, the GI50 in the experiment on SF-268 CNS was 21.5 µM. Further, the TGI with OVCAR-3 ovarian came out at 45.6 µM; with T-47D breast, 39.7 µM; with HS 578T breast, 44.3 µM; with MDA-MB-435, 42 µM; with HCT-15 colon, 25 µM; in the experiment with A498 renal, 35.5 µM. The molecule further returned a TGI with SF-268 CNS of 49.7 µM.
Turning to `CCOC(=S)SCN1C(=O)c2ccccc2S1(=O)=O`, the GI50 with OVCAR-3 ovarian was 0.0358 µM; in the experiment on T-47D breast it was 24.2 µM; in the experiment on HS 578T breast, 29.4 µM; with MDA-MB-435 it was 6.5 µM; with HCT-15 colon, 19.2 µM; with A498 renal it was 19.8 µM. Moreover, the GI50 in the experiment with SF-268 CNS is 29.5 µM. Also, the TGI worked out at 17.3 µM in the experiment on OVCAR-3 ovarian; 80.5 µM with T-47D breast; 82.5 µM in the experiment with HS 578T breast; 24.4 µM in the experiment with MDA-MB-435; 36.1 µM in the experiment with HCT-15 colon; 42 µM in the experiment on A498 renal. This molecule also gave a TGI with SF-268 CNS above 100 µM.
In the case of `C1C[OH+]CC[OH+]CC[OH+]CC[OH+]CC[OH+]CC[OH+]1.[Cl-].[Nb+5]`, the GI50 in the experiment on OVCAR-3 ovarian, in the experiment with HCT-15 colon, in the experiment on HL-60(TB) leukemia, in the experiment with A498 renal and in the experiment on SF-268 CNS was above 100 µM throughout. The TGI in the experiment with OVCAR-3 ovarian, in the experiment on HCT-15 colon, in the experiment with HL-60(TB) leukemia, with A498 renal and in the experiment on SF-268 CNS was above 100 µM in each case.
